US20150274719A1, “AMINO-SUBSTITUTED IMIDAZO[1,2-A]PYRIDINECARBOXAMIDES AND THEIR USE” (BAYER PHARMA AKTIENGESELLSCHAFT, priority 2012, published 2015)

molecular target: T1, recombinant guanylate cyclase reporter cell line (Rattus norvegicus, UniProt P19686+P20595); assay: Action on recombinant guanylate cyclase reporter cell line; type: cell-based; conditions: in some cases mean values from individual determinations
T1 construct: expressed in transfected cells; host or cells: recombinant reporter cell line
T1 sequence (P19686 1-690): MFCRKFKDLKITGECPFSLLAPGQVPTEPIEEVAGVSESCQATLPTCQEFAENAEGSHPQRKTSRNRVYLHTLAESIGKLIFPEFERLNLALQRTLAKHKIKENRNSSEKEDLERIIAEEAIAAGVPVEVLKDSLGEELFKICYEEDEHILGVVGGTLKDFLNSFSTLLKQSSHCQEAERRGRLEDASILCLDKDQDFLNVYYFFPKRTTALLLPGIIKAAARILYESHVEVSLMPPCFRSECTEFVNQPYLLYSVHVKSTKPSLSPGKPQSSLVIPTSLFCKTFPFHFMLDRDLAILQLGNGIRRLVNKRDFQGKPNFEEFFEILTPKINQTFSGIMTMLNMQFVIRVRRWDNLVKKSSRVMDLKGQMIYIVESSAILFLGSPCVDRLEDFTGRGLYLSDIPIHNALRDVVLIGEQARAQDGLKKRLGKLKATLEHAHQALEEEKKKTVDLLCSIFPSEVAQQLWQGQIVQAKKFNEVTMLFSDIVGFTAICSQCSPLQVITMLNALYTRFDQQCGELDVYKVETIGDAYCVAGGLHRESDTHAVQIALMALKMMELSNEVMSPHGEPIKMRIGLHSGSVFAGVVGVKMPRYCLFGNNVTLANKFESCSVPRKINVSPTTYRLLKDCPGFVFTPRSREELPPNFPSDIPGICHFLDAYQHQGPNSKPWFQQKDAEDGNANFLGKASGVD
T1 sequence (P20595 1-619): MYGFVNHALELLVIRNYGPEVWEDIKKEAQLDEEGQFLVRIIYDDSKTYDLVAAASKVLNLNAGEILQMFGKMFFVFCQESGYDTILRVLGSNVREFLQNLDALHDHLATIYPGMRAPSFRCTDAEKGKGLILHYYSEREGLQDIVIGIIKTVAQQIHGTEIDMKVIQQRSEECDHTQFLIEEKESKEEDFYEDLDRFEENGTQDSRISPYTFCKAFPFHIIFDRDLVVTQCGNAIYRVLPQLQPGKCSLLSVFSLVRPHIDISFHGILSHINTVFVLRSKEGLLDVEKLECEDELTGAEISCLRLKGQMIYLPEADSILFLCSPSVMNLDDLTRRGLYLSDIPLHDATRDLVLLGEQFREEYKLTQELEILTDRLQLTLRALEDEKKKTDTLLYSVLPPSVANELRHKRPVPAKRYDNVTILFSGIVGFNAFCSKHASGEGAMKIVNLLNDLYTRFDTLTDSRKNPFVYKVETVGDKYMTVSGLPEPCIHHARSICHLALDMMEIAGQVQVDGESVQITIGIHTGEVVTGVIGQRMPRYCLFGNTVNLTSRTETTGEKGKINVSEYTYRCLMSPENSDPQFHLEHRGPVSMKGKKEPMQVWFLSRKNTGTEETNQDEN
How it was run: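 MEC values, meaning the lowest concentration producing a detectable response, were taken from a recombinant cyclase reporter cell assay. Where repeated, individual determinations were averaged.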

Compound	MEC (minimal effective concentration) [µM]
Cc1nc2c(OCc3c(F)cccc3F)cccn2c1C(=O)N[C@H]1CCNC1 [Example 61, 8-[(2,6-Difluorobenzyl)oxy]-2-methyl-N-[(3S)-pyrrolidin-3-yl]imidazo[1,2-a]pyridine-3-carboxamide]	3.00
CCCC[C@H](CN1CCOCC1)NC(=O)c1c(C)nc2c(OCc3c(F)cccc3F)cccn12 [Example 64, ent-8-[(2,6-Difluorobenzyl)oxy]-2-methyl-N-[(2R)-1-(morpholin-4-yl)hexan-2-yl]imidazo[1,2-a]-pyridine-3-carboxamide]	0.30
CCCC[C@H](CN1CCCC1)NC(=O)c1c(C)nc2c(OCc3c(F)cccc3F)cccn12 [Example 66, ent-8-[(2,6-difluorobenzyl)oxy]-2-methyl-N-[(2R)-1-(pyrrolidin-1-yl)hexan-2-yl]imidazo[1,2-a]-pyridine-3-carboxamide]	1.00
CCCC[C@H](CN1CCN(C)CC1)NC(=O)c1c(C)nc2c(OCc3c(F)cccc3F)cccn12 [Example 67, ent-8-[(2,6-difluorobenzyl)oxy]-2-methyl-N-[(2R)-1-(4-methylpiperazin-1-yl)hexan-2-yl]imidazo[1,2-a]pyridine-3-carboxamide]	0.30
CCCC[C@H](CN(C)C)NC(=O)c1c(C)nc2c(OCc3c(F)cccc3F)cccn12 [Example 68, ent-8-[(2,6-difluorobenzyl)oxy]-N-[(2R)-1-(dimethylamino)hexan-2-yl]-2-methylimidazo[1,2-a]-pyridine-3-carboxamide]	0.30
CCCC[C@H](CN(CC)CC)NC(=O)c1c(C)nc2c(OCc3c(F)cccc3F)cccn12 [Example 69, ent-8-[(2R)-1-(diethylamino)hexan-2-yl]-8-[(2,6-difluorobenzyl)oxy]-2-methylimidazo[1,2-a]-pyridine-3-carboxamide]	1.00
CCCC[C@H](CNCCOC)NC(=O)c1c(C)nc2c(OCc3c(F)cccc3F)cccn12 [Example 70, ent-8-[(2,6-difluorobenzyl)oxy]-N-{(2R)-1-[(2-methoxyethyl)amino]hexan-2-yl}-2-methylimidazo[1,2-a]pyridine-3-carboxamide]	1.00
CCN1C2CCCC1CC(NC(=O)c1c(C)nc3c(OCc4c(F)cccc4F)cccn13)C2 (centres unmarked) [Example 71, 8-[(2,6-Difluorobenzyl)oxy]-N-(9-ethyl-9-azabicyclo[3.3.1]non-3-yl)-2-methylimidazo[1,2-a]-pyridine-3-carboxamide]	0.30
Cc1nc2c(OCc3c(F)cccc3F)cccn2c1C(=O)NCC(C)(C)N [Example 72, N-(2-Amino-2-methylpropyl)-8-[(2,6-difluorobenzyl)oxy]-2-methylimidazo[1,2-a]pyridine-3-carboxamide]	0.30
Cc1nc2c(OCc3c(F)cccc3F)cccn2c1C(=O)NCCNc1ccc(F)cc1 [Example 79, 8-[(2,6-difluorobenzyl)oxy]-N-{2-[(4-fluoro-phenyl)amino]ethyl}-2-methylimidazo[1,2-a]-pyridine-3-carboxamide]	1.00
Cc1nc2c(OCc3c(F)cccc3F)cccn2c1C(=O)NC1CC(C)(C)NC(C)(C)C1 [Example 82, 8-[(2,6-Difluorobenzyl)oxy]-2-methyl-N-(2,2,6,6-tetramethylpiperidin-4-yl)imidazo[1,2-a]-pyridine-3-carboxamide]	0.20
Cc1nc2c(OCc3c(F)cccc3F)cccn2c1C(=O)NC1CC(C)(C)N(C)C(C)(C)C1 [Example 83, 8-[(2,6-difluorobenzyl)oxy]-2-methyl-N-(1,2,2,6,6-pentamethylpiperidin-4-yl)imidazo[1,2-a]pyridine-3-carboxamide]	0.10
Cc1nc2c(OCc3c(F)cccc3F)cccn2c1C(=O)NCCN(C)C [Example 86, 8-[(2,6-difluorobenzyl)oxy]-N-[2-(dimethyl-amino)ethyl]-2-methylimidazo[1,2-a]pyridine-3-carboxamide]	2.00
Cc1nc2c(OCc3c(F)cccc3F)cccn2c1C(=O)NCCCN(C)C [Example 87, 8-[(2,6-difluorobenzyl)oxy]-N-[3-(dimethyl-amino)propyl]-2-methylimidazo[1,2-a]-pyridine-3-carboxamide]	1.00
Cc1nc2c(OCc3c(F)cccc3F)cccn2c1C(=O)NCCN(C(C)C)C(C)C [Example 88, 8-[(2,6-difluorobenzyl)oxy]-N-[2-(diisopropyl-amino)ethyl]-2-methylimidazo[1,2-a]pyridine-3-carboxamide]	1.00
Cc1nc2c(OCc3c(F)cccc3F)cccn2c1C(=O)NCCN1CCOCC1 [Example 89, 8-[(2,6-difluorobenzyl)oxy]-2-methyl-N-[2-(morpholin-4-yl)ethyl]imidazo[1,2-a]pyridine-3-carboxamide]	0.65
Cc1nc2c(OCc3c(F)cccc3F)cccn2c1C(=O)NC1CC2CCCC(C1)N2C (centres unmarked) [Example 90, 8-[(2,6-difluorobenzyl)oxy]-2-methyl-N-(9-methyl-9-azabicyclo[3.3.1]non-3-yl)imidazo[1,2-a]pyridine-3-carboxamide]	0.10
Cc1nc2c(OCc3c(F)cccc3F)cccn2c1C(=O)NC1CC2CCC(C1)N2C (centres unmarked) [Example 91, 8-[(2,6-difluorobenzyl)oxy]-2-methyl-N-(8-methyl-8-azabicyclo[3.2.1]oct-3-yl)imidazo[1,2-a]pyridine-3-carboxamide]	1.00
Cc1nc2c(OCc3c(F)cccc3F)cccn2c1C(=O)NC1CN2CCC1CC2 (centres unmarked) [Example 92, N-(1-azabicyclo[2.2.2]oct-3-yl)-8-[(2,6-difluorobenzyl)oxy]-2-methylimidazo[1,2-a]-pyridine-3-carboxamide]	0.30
Cc1cc(OCc2c(F)cccc2F)c2nc(C)c(C(=O)NCC(C)(C)NCC(F)(F)F)n2c1 [Example 94, 8-[(2,6-Difluorobenzyl)oxy]-2,6-dimethyl-N-{2-methyl-2-[(2,2,2-trifluoroethyl)amino]propyl}-imidazo[1,2-a]pyridine-3-carboxamide]	0.30
[2H]C([2H])(Oc1cccn2c(C(=O)NC(CN)c3ccc(F)c(F)c3)c(C)nc12)c1c(F)cccc1F (stereo not drawn) [Example 97, ent-N-[2-Amino-1-(3,4-difluorophenyl)ethyl]-8-{[(2,6-difluorophenyl)(^2H2)methyl]oxy}-2-methylimidazo[1,2-a]pyridine-3-carboxamide]	0.10
Cc1nc2c(OCc3ccccc3F)cccn2c1C(=O)NC(CN)c1ccc(F)c(F)c1 (stereo not drawn) [Example 98, ent-N-[2-Amino-1-(3,4-difluorophenyl)ethyl]-8-[(2-fluorobenzyl)oxy]-2-methylimidazo[1,2-a]-pyridine-3-carboxamide]	1.00
Cc1nc2c(OCc3cccc(F)c3F)cccn2c1C(=O)NC(CN)c1ccc(F)c(F)c1 (centres unmarked) [Example 99]	1.00
